Earlier results as cited in patent US8940662B2, “Methods for controlling pests” (BASF Corporation, priority 2009, dated 2015).

What was measured:
[1] = system: termites; settings: general statement
[2] = system: ants; settings: general statement

SMILES: N#Cc1nn(-c2c(Cl)cc(C(F)(F)F)cc2Cl)c(N)c1[S+]([O-])C(F)(F)F (racemic) [fipronil, (±)-5-amino-1-(2,6-dichloro-α,α,α-trifluoro-p-tolyl)-4-trifluoromethylsulfinylpyrazole-3-carbonitrile]
- Toxic dose to termites [1]: 2 nanograms per termite
- Toxic dose to ants [2]: about 1 nanogram per ant
